In patent US10385069B2, “Imidazo[2,1-B]thiazole and 5,6-dihydroimidazo[2,1-B]thiazole derivatives useful as S100-inhibitors” (Active Biotech AB, priority 2015, dated 2019):

target: T1, interaction between biotinylated human S100A9 and human RAGE-Fc (Homo sapiens, UniProt P06702); test: AlphaScreen inhibition assay, biot-hS100A9:hRAGE-Fc; format: binding; details: biot-hS100A9 pre-incubated with compound 1 h, assay buffer with CaCl2 and ZnCl2
T1 construct: made in house; host or cells: E. coli
T1 sequence (P06702 1-114): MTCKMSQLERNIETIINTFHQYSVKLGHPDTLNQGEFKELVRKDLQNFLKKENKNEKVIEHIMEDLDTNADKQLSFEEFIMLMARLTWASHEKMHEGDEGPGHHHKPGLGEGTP
Description: Inhibition Assay, Biot-hS100A9:hRAGE-Fc
The AlphaScreen (Amplified Luminescent Proximity Homogeneous Assay) contains two types of beads, Alpha Donor beads and Acceptor beads (PerkinElmer). Upon laser excitation at 680 nm a photosensitizer in the Donor bead converts ambient oxygen to a more excited singlet state. The singlet oxygen molecule diffuses (maximum 200 nm) to react with a thioxene derivative in the Acceptor bead and generates a chemiluminescence reaction. Fluorophores in the Acceptor bead subsequently emit light at 520-620 nm which can be detected in the EnVision® Multilabel plate Reader (PerkinElmer). The beads are light sensitive and all work with the beads is performed under subdued light conditions or using green filters on light sources (Roscolux Chroma Green #389, Rosco).
In the AlphaScreen Inhibition Assay described here, protein A (Staphylococcus aureus) conjugated Acceptor beads are used together with streptavidin coated Donor beads (Perkin Elmer 6760617M). The Acceptor beads are pre-incubated with Fc-tagged recombinant human RAGE (rhRAGE-Fc) allowing binding of the rhRAGE-Fc to protein A on the beads. Biotinylated human S100A9 (biot-hS100A9) is pre-incubated with the low molecular test compounds. The pre-mixes are then added to the wells of a micro-plate and incubated allowing interaction between biot-hS100A9 and rhRAGE-Fc. Subsequent addition of streptavidin coated Donor beads causes binding of the streptavidin to the biotinylated hS100A9. After an additional incubation the signal is measured.
Without inhibitory compounds, the interaction of biot-hS100A9 to rhRAGE-Fc will bring the Acceptor and Donor beads in close proximity thus generating a high signal. With an inhibitor present the complex will not form resulting in a decreased signal. The assay is illustrated in FIG. 1.
Chemicals and Reagents. • AlphaScreen® General IgG (Protein A) Detection Kit, (PerkinElmer 6760617M) • HBS-P buffer (GE Healthcare, BR-1003-68) • HBS-N buffer (GE Healthcare, BR-1003-69) • CaCl2 in HBS-P • ZnCl2 in Milli-Q water • DMSO • Biotinylated hS100A9, (biotinylated via cystein by EZ-link Iodoacetyl-PEG2-Biotin reagent (Pierce no. 21334), in HBS-N • rhRAGE-Fc (R&D Systems, 1145-RG-50), in HBS-P
The AlphaScreen assay method is used for screening of the inhibitory effect of different compound samples at fixed concentrations or for IC50 determination by varying the compound concentrations. Samples of test compounds and references are prepared from solutions in DMSO. Relevant reference inhibitors and DMSO are used as controls for defined inhibition and non-inhibition, respectively in the assay. The percent inhibition in assay for test compounds and references are calculated by comparing their obtained assay signals with the signal values for the control with only DMSO (no compound).
Assay concentration of biotinylated hS100A9 and rhRAGE-Fc are batch dependent, and are determined and defined by separate cross-titration experiments using this AlphaScreen inhibition method to verify the optimal setup regarding signal strength and achievement of a defined inhibition with relevant reference compounds. The Final assay concentrations of Acceptor and Donor beads are 20 μg/mL.
Assay buffer is prepared by adding CaCl2 and ZnCl2 to HBS-P and is used freshly prepared in the experiment.
Biotin-hS100A9 solution for the experiment is prepared by dilution of appropriate amount of stock solution biot-hS100A9 in assay buffer (with CaCl2 and ZnCl2) and incubation in room temperature for 30 minutes.
rhRAGE-Fc solution for the experiment is prepared by dilution appropriate amount of rhRAGE-Fc stock in assay buffer.
Protein A Acceptor beads are diluted in assay buffer and are added to an equal volume of the prepared diluted rhRAGE-Fc solution. The beads are light sensitive. The vial is covered with aluminum foil and incubated at room temperature in the dark until biot-hS100A9+compound incubation is finished (see below). […]

SMILES | IC50 [nM]
O=C(NS(=O)(=O)c1ccccc1)C1CN2C(=N1)Sc1c2ccc(F)c1Cl (stereo not shown) [Example 278, N-(Benzenesulfonyl)-9-chloro-10-fluoro-7-thia-2,5-diazatricyclo[6.4.0.0^2,6]dodeca-1(8),5,9,11-tetraene-4-carboxamide] | 170
Cc1c(C(=O)O)nc2sc3c(Cl)c(F)ccc3n12 [Example 234, 9-Chloro-10-fluoro-3-methyl-7-thia-2,5-diazatricyclo[6.4.0.0^2,6]dodeca-1(8),3,5,9,11-pentaene-4-carboxylic acid] | 90
O=C(O)c1cn2c(n1)sc1c(Cl)cc(Cl)cc12 [Example 204, 9,11-Dichloro-7-thia-2,5-diazatricyclo[6.4.0.0^2,6]dodeca-1(8),3,5,9,11-pentaene-4-carboxylic acid] | 940
O=C(O)c1cn2c(n1)sc1c(F)c(Cl)ccc12 [Example 3, 10-Chloro-9-fluoro-7-thia-2,5-diazatricyclo[6.4.0.0^2,6]dodeca-1(8),3,5,9,11-pentaene-4-carboxylic acid] | 350
CC1(C)Cc2c(sc3nc(C(=O)O)c(N4CCOCC4)n23)C(C)(C)C1 [Example 233, 9,9,11,11-Tetramethyl-3-(morpholin-4-yl)-7-thia-2,5-diazatricyclo[6.4.0.0^2,6]dodeca-1(8),3,5-triene-4-carboxylic acid] | 430
O=C(O)c1nc2sc3cc(OC(F)(F)F)ccc3n2c1Br [Example 17, 3-Bromo-10-(trifluoromethoxy)-7-thia-2,5-diazatricyclo[6.4.0.0^2,6]dodeca-1(8),3,5,9,11-pentaene-4-carboxylic acid] | 3410
CC(C)(C)C1CCc2c(sc3nc(C(=O)NS(C)(=O)=O)cn23)C1 (stereo not shown) [Example 47, 10-tert-Butyl-N-methanesulfonyl-7-thia-2,5-diazatricyclo[6.4.0.0^2,6]dodeca-1(8),3,5-triene-4-carboxamide] | 340
O=C(O)c1nc2sc3c(Cl)c(F)ccc3n2c1C1CNC1 [Example 281, 3-(Azetidin-3-yl)-9-chloro-10-fluoro-7-thia-2,5-diazatricyclo[6.4.0.0^2,6]dodeca-1(8),3,5,9,11-pentaene-4-carboxylic acid] | 1800
COCCN1CCN(Cc2c(C(=O)O)nc3sc4c(n23)CCC(C(C)(C)C)C4)CC1 (stereo not shown) [Example 272, 10-tert-Butyl-3-{[4-(2-methoxyethyl)piperazin-1-yl]methyl}-7-thia-2,5-diazatricyclo[6.4.0.0^2,6]dodeca-1(8),3,5-triene-4-carboxylic acid] | 1770
O=C(O)C(O)c1cn2c(n1)sc1c(Cl)c(Cl)ccc12 (stereo not shown) [Example 188, 2-{9,10-Dichloro-7-thia-2,5-diazatricyclo[6.4.0.0^2,6]dodeca-1(8),3,5,9,11-pentaen-4-yl}-2-hydroxyacetic acid] | 2190
CC(C)(C)C1CCc2c(sc3nc(CC(=O)O)cn23)C1 (stereo not shown) [Example 45, 2-{10-tert-Butyl-7-thia-2,5-diazatricyclo[6.4.0.0^2,6]dodeca-1(8),3,5-trien-4-yl}acetic acid] | 3100
O=C(O)[C@@H]1CN2C(=N1)Sc1c2ccc(F)c1Cl (single isomer, unassigned) [Example 236] | 1300
CC1(C)Cc2c(sc3nc(C(=O)O)c(CN4CCOCC4)n23)C(C)(C)C1 [Example 246, 9,9,11,11-Tetramethyl-3-(morpholin-4-ylmethyl)-7-thia-2,5-diazatricyclo[6.4.0.0^2,6]dodeca-1(8),3,5-triene-4-carboxylic acid] | 600
O=C(O)c1cn2c3c(sc2n1)C(O)CCC3 (stereo not shown) [Example 39, 9-Hydroxy-7-thia-2,5-diazatricyclo[6.4.0.0^2,6]dodeca-1(8),3,5-triene-4-carboxylic acid] | 2980
O=C(O)c1cn2c(n1)sc1cc(Cl)ccc12 [Example 8, 10-Chloro-7-thia-2,5-diazatricyclo[6.4.0.0^2,6]dodeca-1(8),3,5,9,11-pentaene-4-carboxylic acid] | 2700
CC(C)(C)C1CCc2c(sc3nc(C(=O)NS(=O)(=O)CCCN4CCOCC4)cn23)C1 (stereo not shown) [Example 51, 10-tert-Butyl-N-[3-(morpholin-4-yl)propanesulfonyl]-7-thia-2,5-diazatricyclo[6.4.0.0^2,6]dodeca-1(8),3,5-triene-4-carboxamide] | 490
O=C(O)c1cn2c(n1)sc1c(Cl)c(Cl)cc(OCCN3CCOCC3)c12 [Example 241, 9,10-Dichloro-12-[2-(morpholin-4-yl)ethoxy]-7-thia-2,5-diazatricyclo[6.4.0.0^2,6]dodeca-1(8),3,5,9,11-pentaene-4-carboxylic acid] | 690
CC(C)CC1(C(=O)O)CN2C(=N1)Sc1c2ccc(F)c1Cl (stereo not shown) [Example 249, 9-Chloro-10-fluoro-4-(2-methylpropyl)-7-thia-2,5-diazatricyclo[6.4.0.0^2,6]dodeca-1(8),5,9,11-tetraene-4-carboxylic acid] | 690
C[C@]1(C(=O)O)CN2C(=N1)Sc1c2ccc(F)c1Cl (single isomer, unassigned) [Example 279a] | 170
CC1(C)CCCc2c1sc1nc(C(=O)O)cn21 [Example 43, 9,9-Dimethyl-7-thia-2,5-diazatricyclo[6.4.0.0^2,6]dodeca-1(8),3,5-triene-4-carboxylic acid] | 1240
CN1CCN(c2c(C(=O)O)nc3sc4c(Cl)c(F)ccc4n23)CC1 [Example 276, 9-Chloro-10-fluoro-3-(4-methylpiperazin-1-yl)-7-thia-2,5-diazatricyclo[6.4.0.0^2,6]dodeca-1(8),3,5,9,11-pentaene-4-carboxylic acid] | 390
O=C(O)c1cn2c(n1)sc1c(Cl)ccc(Cl)c12 [Example 197, 9,12-Dichloro-7-thia-2,5-diazatricyclo[6.4.0.0^2,6]dodeca-1(8),3,5,9,11-pentaene-4-carboxylic acid] | 1440
CC1(C)Cc2c(sc3nc(CC(=O)O)cn23)C(C)(C)C1 [Example 46, 2-{9,9,11,11-Tetramethyl-7-thia-2,5-diazatricyclo[6.4.0.0^2,6]dodeca-1(8),3,5-trien-4-yl}acetic acid] | 4940
COc1ccc(-c2c(C(=O)O)nc3sc4c(n23)CC(C)(C)CC4(C)C)cc1 [Example 254, 3-(4-Methoxyphenyl)-9,9,11,11-tetramethyl-7-thia-2,5-diazatricyclo[6.4.0.0^2,6]dodeca-1(8),3,5-triene-4-carboxylic acid] | 1150
CC1(C)Cc2c(sc3nc(C(=O)O)c(C4CC4)n23)C(C)(C)C1 [Example 258, 3-Cyclopropyl-9,9,11,11-tetramethyl-7-thia-2,5-diazatricyclo[6.4.0.0^2,6]dodeca-1(8),3,5-triene-4-carboxylic acid] | 510
O=C(O)c1cn2c(n1)sc1c(OC(F)(F)F)cccc12 [Example 198, 9-(Trifluoromethoxy)-7-thia-2,5-diazatricyclo[6.4.0.0^2,6]dodeca-1(8),3,5,9,11-pentaene-4-carboxylic acid] | 1560
CN1CCN(Cc2c(C(=O)O)nc3sc4c(n23)CCC(C(C)(C)C)C4)CC1 (stereo not shown) [Example 273, 10-tert-Butyl-3-[(4-methylpiperazin-1-yl)methyl]-7-thia-2,5-diazatricyclo[6.4.0.0^2,6]dodeca-1(8),3,5-triene-4-carboxylic acid] | 1490
O=C(O)c1cn2c(n1)sc1c(Cl)c(Br)ccc12 [Example 243, 10-Bromo-9-chloro-7-thia-2,5-diazatricyclo[6.4.0.0^2,6]dodeca-1(8),3,5,9,11-pentaene-4-carboxylic acid] | 210
